According to patent US10189863B2, “5,6-dihydro-4H-benzo[b]thieno-[2,3-d]azepine derivatives” (PULMOCIDE LIMITED, priority 2014, dated 2019):

Assays:
RSV A2 strain = experiment: Assessment of RSV induced CPE in HEp2 cells (RSV A2 strain); assay type: cell-based; settings: human respiratory syncytial virus, HEp2 cells; for IC50: HEp-2, 120 h, 1 MOI, 5 days, read-out: RSV A2 CPE IC50; for inhibition at 0.1 µg/mL / inhibition at 0.01 µg/mL: HEp-2; for inhibition at 0.1 µg/mL: Inhibition (%) at 0.1 μg/mL, read-out: RSV A2 CPE % Inhibition; for inhibition at 0.01 µg/mL: Inhibition (%) at 0.01 μg/mL
Procedure: (§1) Assessment of RSV Induced CPE in HEp2 Cells
(§2) HEp2 cells were seeded (10^3/well/50 μL) in 384-well plates (Catalogue number 353962, BD Falcon, Oxford, UK) in […] containing 2 mM L-glutamine and 1 mM sodium pyruvate one day before infection. RSV A2 strain (#0709161v, NCPV, Public Health England, Wiltshire) or RSV B Washington strain (VR-1580, ATCC, Manassas, Va. 20108) virus solutions were prepared in serum free-DMEM with 2 mM L-glutamine and 1 mM sodium pyruvate, and then added (50 μL/well) to achieve a final virus concentration of 1 MOI. Simultaneously test compounds (0.5 μL DMSO solution) were added to 100 μL of HEp2 cell culture with virus solution to provide a final DMSO solution of 0.5%. Plates were incubated (37° C./5% CO2) for 5 days for studies using RSV A2 strain or 6 days for those using RSV B strain, and then resazurin sodium salt (5 μL of 0.03% solution; Sigma-Aldrich, Dorset, UK) was added to each well and the plate incubated for a further 6 hr (37° C./5% CO2). The fluorescence of each well [545 nm (excitation)/590 nm (emission)] was determined using a multi-scanner (Clariostar: BMG, Buckinghamshire, UK). The percentage inhibition for each well was calculated and the IC50, IC75 and IC90 values were calculated from the concentration-response curve generated for each test compound.

RSV B Washington strain = experiment: Assessment of RSV induced CPE in HEp2 cells (RSV B Washington strain); assay type: cell-based; settings: human respiratory syncytial virus, HEp2 cells; for IC50: HEp-2, 144 h, 1 MOI, 6 days, read-out: RSV B CPE IC50; for inhibition at 1 µg/mL: HEp-2, Inhibition (%) at 1 μg/mL, read-out: RSV B CPE % Inhibition
Procedure: as §1, §2

[1] = Cell viability: resazurin assay; assay type: cell-based, human; settings: human, HEp2 cells
Procedure: Cell Viability: Resazurin Assay
HEp2 cells were seeded in 384-well plates (10^3/well/50 μL; BD Falcon Ref 353962) in FBS DMEM (5%, containing 2 mM L-glutamine and 1 mM sodium pyruvate) one day before experimentation. Serum-free DMEM (50 μL) was added to test wells while for control wells the media was removed and sterile water (100 μL) was added. Test compounds (0.5 μL DMSO solution) were added to give a final DMSO concentration of 0.5%. Hep2 cells were incubated with each test compound for 5 days (37° C./5% CO2 in 5% FBS) and then resazurin stock solution (5 μL; 0.03%) was added to each well and the plate incubated for a further 6 hr (37° C./5% CO2). The fluorescence of each well at 545 nm (excitation) and 590 nm (emission) was determined using a multi-scanner (Clariostar: BMG Labtech). The percentage loss of cell viability was calculated for each well relative to vehicle (0.5% DMSO) treatment.
Any apparent increase in cell viability associated with test compound treatment relative to vehicle is consequently tabulated as a negative percentage. Where appropriate, a CC50 value was calculated from the concentration-response curve generated from the concentration-response curve for each test compound.

In the case of Cc1ccc(NC(=O)c2cc3c(s2)-c2ccccc2N(C(=O)c2ccc(NC(=O)c4cccnc4N4CC5(CCOCC5)C4)cc2)CC3)c(F)c1 [Example 22, 6-(4-(2-(7-oxa-2-azaspiro[3.5]nonan-2-yl)nicotinamido)benzoyl)-N-(2-fluoro-4-methylphenyl)-5,6-dihydro-4H-benzo[b]thieno[2,3-d]azepine-2-carboxamide], the IC50 (RSV A2 strain) is reported as 0.96 nM, the inhibition at 0.1 µg/mL (RSV A2 strain) is reported as 96% and the IC50 (RSV B Washington strain) is reported as 37.3 nM. It also gave an inhibition at 1 µg/mL (RSV B Washington strain) of 77% and a CC50 at 5 days [1] greater than 14200 nM.

For COc1ccc(NC(=O)c2cc3c(s2)-c2ccccc2N(C(=O)c2ccc(NC(=O)c4cccnc4N4CC5(CCOCC5)C4)cc2)CC3)c(F)c1 [Example 23, 6-(4-(2-(7-oxa-2-azaspiro[3.5]nonan-2-yl)nicotinamido)benzoyl)-N-(2-fluoro-4-methoxyphenyl)-5,6-dihydro-4H-benzo[b]thieno[2,3-d]azepine-2-carboxamide], the IC50 (RSV A2 strain) was 1.1 nM, the inhibition at 0.1 µg/mL (RSV A2 strain) was 100% and the IC50 (RSV B Washington strain) was 16.3 nM. It also gave an inhibition at 1 µg/mL (RSV B Washington strain) of 55% and a CC50 at 5 days [1] greater than 13900 nM.

In the case of Cc1cccc(C)c1NC(=O)c1cc2c(s1)-c1ccccc1N(C(=O)c1ccc(NC(=O)c3cccnc3N3CC4(CCOCC4)C3)cc1)CC2 [Example 24, 6-(4-(2-(7-oxa-2-azaspiro[3.5]nonan-2-yl)nicotinamido)benzoyl)-N-(2,6-dimethylphenyl)-5,6-dihydro-4H-benzo[b] thieno[2,3-d]azepine-2-carboxamide], the IC50 (RSV A2 strain) is reported as 0.57 nM, the inhibition at 0.1 µg/mL (RSV A2 strain) is reported as 88% and the IC50 (RSV B Washington strain) is reported as 19.6 nM. For the same compound, the inhibition at 1 µg/mL (RSV B Washington strain) was 65% and the CC50 at 5 days [1] was greater than 14300 nM.

Cc1cccc(F)c1NC(=O)c1cc2c(s1)-c1ccccc1N(C(=O)c1ccc(NC(=O)c3cccnc3N3CC4(CCOCC4)C3)cc1)CC2 [Example 25, 6-(4-(2-(7-oxa-2-azaspiro[3.5]nonan-2-yl)nicotinamido)benzoyl)-N-(2-fluoro-6-methylphenyl)-5,6-dihydro-4H-benzo[b]thieno[2,3-d]azepine-2-carboxamide] gave an IC50 (RSV A2 strain) of 0.18 nM, an inhibition at 0.1 µg/mL (RSV A2 strain) of 99% and an IC50 (RSV B Washington strain) of 20.6 nM. For the same compound, the inhibition at 1 µg/mL (RSV B Washington strain) was 71% and the CC50 at 5 days [1] was greater than 14200 nM.

Work on O=C(Nc1c(F)cc(F)cc1F)c1cc2c(s1)-c1ccccc1N(C(=O)c1ccc(NC(=O)c3cccnc3N3CC4(CCOCC4)C3)cc1)CC2 [Example 28, 6-(4-(2-(7-oxa-2-azaspiro[3.5]nonan-2-yl)nicotinamido)benzoyl)-N-(2,4,6-trifluorophenyl)-5,6-dihydro-4H-benzo[b] thieno[2,3-d]azepine-2-carboxamide] yielded an IC50 (RSV A2 strain) of 0.17 nM, an inhibition at 0.1 µg/mL (RSV A2 strain) of 96% and an IC50 (RSV B Washington strain) of 41.4 nM. The inhibition at 1 µg/mL (RSV B Washington strain) was 66% and the CC50 at 5 days [1] was greater than 13800 nM.

O=C(Nc1ccccc1F)c1cc2c(s1)-c1ccccc1N(C(=O)c1ccc(NC(=O)c3cccnc3N3CC4(CCOCC4)C3)cc1F)CC2 [Example 29, 6-(4-(2-(7-oxa-2-azaspiro[3.5]nonan-2-yl)nicotinamido)-2-fluorobenzoyl)-N-(2-fluorophenyl)-5,6-dihydro-4H-benzo[b]thieno[2,3-d]azepine-2-carboxamide] gave an IC50 (RSV A2 strain) of 0.13 nM, an inhibition at 0.1 µg/mL (RSV A2 strain) of 97% and an IC50 (RSV B Washington strain) of 27.9 nM. It also gave an inhibition at 1 µg/mL (RSV B Washington strain) of 73% and a CC50 at 5 days [1] greater than 14200 nM.

Work on O=C(Nc1c(F)cccc1Cl)c1cc2c(s1)-c1ccccc1N(C(=O)c1ccc(NC(=O)c3cccnc3N3CC4(CCOCC4)C3)cc1F)CC2 [Example 31, 6-(4-(2-(7-oxa-2-azaspiro[3.5]nonan-2-yl)nicotinamido)-2-fluorobenzoyl)-N-(2-chloro-6-fluorophenyl)-5,6-dihydro-4H-benzo[b]thieno[2,3-d]azepine-2-carboxamide] yielded an IC50 (RSV A2 strain) of 0.1 nM, an inhibition at 0.1 µg/mL (RSV A2 strain) of 100% and an IC50 (RSV B Washington strain) of 49.6 nM. For the same compound, the inhibition at 1 µg/mL (RSV B Washington strain) was 90% and the CC50 at 5 days [1] was greater than 13500 nM.

Cc1cnc(N2CC3(CCOCC3)C2)c(C(=O)Nc2ccc(C(=O)N3CCc4cc(C(=O)Nc5ccccc5)sc4-c4ccccc43)cc2)c1 [Example 32, 6-(4-(5-methyl-2-(7-oxa-2-azaspiro[3.5]nonan-2-yl)nicotinamido)benzoyl)-N-phenyl-5,6-dihydro-4H-benzo[b] thieno[2,3-d]azepine-2-carboxamide] showed an IC50 (RSV A2 strain) of less than 0.015 nM, an inhibition at 0.1 µg/mL (RSV A2 strain) of 100% and an IC50 (RSV B Washington strain) of 38.2 nM. The inhibition at 1 µg/mL (RSV B Washington strain) was 81% and the CC50 at 5 days [1] was greater than 14600 nM.

Compound Cc1cnc(N2CC3(CCOCC3)C2)c(C(=O)Nc2ccc(C(=O)N3CCc4cc(C(=O)Nc5ccccc5Cl)sc4-c4ccccc43)cc2)c1 [Example 34, N-(2-chlorophenyl)-6-(4-(5-methyl-2-(7-oxa-2-azaspiro [3.5]nonan-2-yl)nicotinamido)benzoyl)-5,6-dihydro-4H-benzo[b]thieno[2,3-d]azepine-2-carboxamide] has an IC50 (RSV A2 strain) of 0.11 nM, an inhibition at 0.1 µg/mL (RSV A2 strain) of 100% and an IC50 (RSV B Washington strain) of 38.5 nM. It also gave an inhibition at 1 µg/mL (RSV B Washington strain) of 86% and a CC50 at 5 days [1] greater than 13900 nM.

In the case of Cc1cnc(N2CC3(CCOCC3)C2)c(C(=O)Nc2ccc(C(=O)N3CCc4cc(C(=O)Nc5ccccc5C)sc4-c4ccccc43)cc2)c1 [Example 35, 6-(4-(5-methyl-2-(7-oxa-2-azaspiro[3.5]nonan-2-yl)nicotinamido)benzoyl)-N-(o-tolyl)-5,6-dihydro-4H-benzo[b] thieno[2,3-d]azepine-2-carboxamide], the IC50 (RSV A2 strain) is reported as 0.14 nM, the inhibition at 0.1 µg/mL (RSV A2 strain) is reported as 100% and the IC50 (RSV B Washington strain) is reported as 62.8 nM. The inhibition at 1 µg/mL (RSV B Washington strain) was 70% and the CC50 at 5 days [1] was greater than 14300 nM.

Compound C=Cc1cccc(F)c1NC(=O)c1cc2c(s1)-c1ccccc1N(C(=O)c1ccc(NC(=O)c3cc(C)cnc3N3CC4(CCOCC4)C3)cc1)CC2 [Example 36, N-(2-fluoro-6-vinylphenyl)-6-(4-(5-methyl-2-(7-oxa-2-azaspiro[3.5]nonan-2-yl)nicotinamido)benzoyl)-5,6-dihydro-4H-benzo[b]thieno[2,3-d]azepine-2-carboxamide] has an IC50 (RSV A2 strain) of 0.16 nM, an inhibition at 0.01 µg/mL (RSV A2 strain) of 95% and an IC50 (RSV B Washington strain) of 13.4 nM. For the same compound, the inhibition at 1 µg/mL (RSV B Washington strain) was 99% and the CC50 at 5 days [1] was greater than 13700 nM.

With C#Cc1cccc(F)c1NC(=O)c1cc2c(s1)-c1ccccc1N(C(=O)c1ccc(NC(=O)c3cc(C)cnc3N3CC4(CCOCC4)C3)cc1)CC2 [Example 37, N-(2-ethynyl-6-fluorophenyl)-6-(4-(5-methyl-2-(7-oxa-2-azaspiro[3.5]nonan-2-yl)nicotinamido)benzoyl)-5,6-dihydro-4H-benzo[b]thieno[2,3-d]azepine-2-carboxamide] the IC50 (RSV A2 strain) was 0.15 nM, the inhibition at 0.01 µg/mL (RSV A2 strain) was 100% and the IC50 (RSV B Washington strain) was 7.2 nM. It also gave an inhibition at 1 µg/mL (RSV B Washington strain) of 100% and a CC50 at 5 days [1] greater than 13800 nM.

Compound Cc1cnc(N2CC3(CCOCC3)C2)c(C(=O)Nc2ccc(C(=O)N3CCc4cc(C(=O)Nc5ccc(F)cc5F)sc4-c4ccccc43)cc2)c1 [Example 38, N-(2,4-difluorophenyl)-6-(4-(5-methyl-2-(7-oxa-2-aza-spiro[3.5]nonan-2-yl)nicotinamido)benzoyl)-5,6-dihydro-4H-benzo[b]thieno[2,3-d]azepine-2-carboxamide] has an IC50 (RSV A2 strain) of less than 0.014 nM, an inhibition at 0.1 µg/mL (RSV A2 strain) of 100% and an IC50 (RSV B Washington strain) of 18.4 nM. For the same compound, the inhibition at 1 µg/mL (RSV B Washington strain) was 73% and the CC50 at 5 days [1] was greater than 13900 nM.

Cc1ccc(C(=O)Nc2ccc(C(=O)N3CCc4cc(C(=O)Nc5c(C)cccc5F)sc4-c4ccccc43)cc2)c(N2CC3(CCOCC3)C2)n1 [Example 40, N-(2-fluoro-6-methylphenyl)-6-(4-(6-methyl-2-(7-oxa-2-azaspiro[3.5]nonan-2-yl)nicotinamido)benzoyl)-5,6-dihydro-4H-benzo[b]thieno[2,3-d]azepine-2-carboxamide] showed an IC50 (RSV A2 strain) of 0.15 nM, an inhibition at 0.1 µg/mL (RSV A2 strain) of 100% and an IC50 (RSV B Washington strain) of 41.3 nM. For the same compound, the inhibition at 1 µg/mL (RSV B Washington strain) was 80% and the CC50 at 5 days [1] was greater than 14000 nM.

Cc1ccc(C(=O)Nc2ccc(C(=O)N3CCc4cc(C(=O)Nc5c(F)cccc5Cl)sc4-c4ccccc43)cc2)c(N2CC3(CCOCC3)C2)n1 [Example 41, N-(2-chloro-6-fluorophenyl)-6-(4-(6-methyl-2-(7-oxa-2-azaspiro[3.5]nonan-2-yl)nicotinamido)benzoyl)-5,6-dihydro-4H-benzo[b]thieno[2,3-d]azepine-2-carboxamide] gave an IC50 (RSV A2 strain) of 0.11 nM, an inhibition at 0.1 µg/mL (RSV A2 strain) of 100% and an IC50 (RSV B Washington strain) of 15.4 nM. The inhibition at 1 µg/mL (RSV B Washington strain) was 79% and the CC50 at 5 days [1] was greater than 13600 nM.
